This passage reports EC50 results from patent US11654199B2 (BOLT BIOTHERAPEUTICS, INC., priority 2019, dated 2023).

The structures appear in SMILES notation.

Assay [1] addresses T1, human TLR7 (Homo sapiens, UniProt Q9NYK1).
T1 construct: host or cells: HEK293 reporter cells
T1 sequence (Q9NYK1 27-1049): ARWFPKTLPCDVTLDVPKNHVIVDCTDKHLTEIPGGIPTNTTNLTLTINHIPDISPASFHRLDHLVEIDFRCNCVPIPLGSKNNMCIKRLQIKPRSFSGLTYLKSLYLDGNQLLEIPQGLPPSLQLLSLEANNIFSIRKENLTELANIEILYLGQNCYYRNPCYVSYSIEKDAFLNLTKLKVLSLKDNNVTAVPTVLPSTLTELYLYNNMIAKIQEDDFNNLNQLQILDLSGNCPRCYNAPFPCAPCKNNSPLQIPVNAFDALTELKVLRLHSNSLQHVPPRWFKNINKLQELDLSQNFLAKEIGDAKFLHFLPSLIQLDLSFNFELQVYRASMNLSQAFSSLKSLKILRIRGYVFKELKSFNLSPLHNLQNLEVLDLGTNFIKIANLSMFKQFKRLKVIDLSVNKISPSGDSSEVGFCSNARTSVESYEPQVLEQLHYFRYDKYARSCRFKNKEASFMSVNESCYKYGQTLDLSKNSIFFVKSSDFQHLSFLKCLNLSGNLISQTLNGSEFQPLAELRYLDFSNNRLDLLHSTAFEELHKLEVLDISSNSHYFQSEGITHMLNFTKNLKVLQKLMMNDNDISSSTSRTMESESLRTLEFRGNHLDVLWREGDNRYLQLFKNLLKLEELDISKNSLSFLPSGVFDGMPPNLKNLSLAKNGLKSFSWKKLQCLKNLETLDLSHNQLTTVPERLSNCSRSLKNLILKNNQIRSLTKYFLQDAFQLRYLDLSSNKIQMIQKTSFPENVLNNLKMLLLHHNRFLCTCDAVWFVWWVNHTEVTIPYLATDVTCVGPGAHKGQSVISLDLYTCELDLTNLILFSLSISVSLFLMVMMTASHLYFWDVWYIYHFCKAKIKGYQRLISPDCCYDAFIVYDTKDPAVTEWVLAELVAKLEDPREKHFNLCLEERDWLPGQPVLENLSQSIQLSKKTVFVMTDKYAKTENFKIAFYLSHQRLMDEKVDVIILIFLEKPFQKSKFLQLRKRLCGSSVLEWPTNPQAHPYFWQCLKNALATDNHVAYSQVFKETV
Put plainly: HEK293 NFKB reporter assay, human TLR7. The note with it: HEK293 NFKB reporter cells expressing human TLR7; read-out: HEK293 hTLR7 EC50. The class given is cell-based. The method in brief:
(§1)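 HEK293 NF-κB reporter cells expressing human TLR7 or TLR8 were seeded at 4×10^4 cells/well in HEK detection medium containing the stimulatory molecules. Reporter activity was read by absorbance at 620-655 nm.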
A general note: A reporter such as luciferase makes a cellular process visible.

For assay [2], the target named is T2, human TLR8 (Homo sapiens, UniProt Q9NR97).
T2 construct: host or cells: HEK293 reporter cells
T2 sequence (Q9NR97 27-1041): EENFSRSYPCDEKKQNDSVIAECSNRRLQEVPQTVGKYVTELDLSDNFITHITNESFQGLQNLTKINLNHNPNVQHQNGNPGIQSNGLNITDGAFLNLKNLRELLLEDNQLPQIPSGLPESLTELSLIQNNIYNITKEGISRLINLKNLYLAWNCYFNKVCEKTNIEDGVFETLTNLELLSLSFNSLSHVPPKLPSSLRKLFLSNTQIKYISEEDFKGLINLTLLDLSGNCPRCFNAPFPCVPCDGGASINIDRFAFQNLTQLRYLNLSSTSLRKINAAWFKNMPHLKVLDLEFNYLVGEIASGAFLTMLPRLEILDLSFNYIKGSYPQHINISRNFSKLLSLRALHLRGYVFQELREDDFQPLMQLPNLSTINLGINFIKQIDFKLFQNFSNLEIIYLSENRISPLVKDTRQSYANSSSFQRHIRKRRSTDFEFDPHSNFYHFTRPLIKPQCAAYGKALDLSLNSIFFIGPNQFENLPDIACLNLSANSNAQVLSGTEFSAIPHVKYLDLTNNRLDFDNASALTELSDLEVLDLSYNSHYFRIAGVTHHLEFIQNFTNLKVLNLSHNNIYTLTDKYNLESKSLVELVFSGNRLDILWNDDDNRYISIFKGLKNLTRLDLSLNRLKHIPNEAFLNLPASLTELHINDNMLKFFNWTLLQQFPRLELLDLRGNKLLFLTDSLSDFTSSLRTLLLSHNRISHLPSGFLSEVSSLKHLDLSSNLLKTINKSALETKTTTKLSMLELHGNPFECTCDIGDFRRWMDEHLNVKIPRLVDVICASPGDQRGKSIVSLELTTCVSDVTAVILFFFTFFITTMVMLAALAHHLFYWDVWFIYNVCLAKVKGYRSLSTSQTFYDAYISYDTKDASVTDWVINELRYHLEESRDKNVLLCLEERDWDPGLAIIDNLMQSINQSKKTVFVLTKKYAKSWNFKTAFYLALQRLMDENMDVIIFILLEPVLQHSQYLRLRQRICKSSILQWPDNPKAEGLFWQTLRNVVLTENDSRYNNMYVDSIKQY
Put plainly: HEK293 NFKB reporter assay, human TLR8. The assay is classed as cell-based. Particulars: HEK293 NFKB reporter cells expressing human TLR8; read-out: HEK293 hTLR8 EC50. The method in brief: as §1

Turning to `CCCN(OCC)C(=O)C1=Cc2sc(CCC3CCN(C(=O)OC(C)(C)C)CC3)cc2N=C(N)C1` [TAZ-175], the figures for the half-maximal effective concentration (EC50) in assay [1] and in assay [2] were 4.18 µM and 0.474 µM, respectively.
For the compound `CCCN(Cc1ccccc1)C(=O)C1=Cc2sccc2N=C(N)C1` [TAZ-39], the EC50 in assay [1] and in assay [2] was more than 9 µM each time.
`CCCN(Cc1ccc(CN(C)C)c(C(F)(F)F)n1)C(=O)C1=Cc2sc(CCCCCN)cc2N=C(N)C1` [TAZ-145]: the EC50 – broadly, the concentration giving half of the maximal effect – in assay [1] was determined as 5.94 µM; in assay [2] it was 4.01 µM.
Taken in the same sequence, the figures for `[2H]C1=C(C(=O)N(CCC)Cc2ccc(CNC(=O)OC(C)(C)C)nc2)CC(N)=Nc2ccsc21` [TAZ-50] were 7.12 µM and 7.94 µM.
Taken in the same sequence, the figures for `CCCN(CCCNC(=O)OC1CCC1)C(=O)C1=Cc2sc(CNC(=O)c3ccccc3)cc2N=C(N)C1` [TAZ-203] were 3.26 µM and 3.25 µM.
The corresponding values for `CCCN(CCCNC(=O)OC(C)(C)C)C(=O)C1=Cc2sccc2N=C(N)C1` [TAZ-8, tert-butyl N-[3-[(5-amino-6H-thieno[3,2-b]azepine-7-carbonyl)-propyl-amino]propyl]carbamate] are 0.589 µM and 1.53 µM.
On to `CCCN(CCC)C(=O)C1=Cc2sc(CC(=O)OC)cc2N=C(N)C1` [TAZ-134], for which the EC50 is 4.7 µM in assay [1] and 3.42 µM in assay [2].
On to `CCCN(OCC)C(=O)C1=Cc2sc(CN3CCCNCC3)cc2N=C(N)C1` [TAZ-225], for which the values for the EC50 in assay [1] and in assay [2] were 2.56 µM and 1.21 µM, respectively.
The corresponding values for `CCCN(CCc1ccc(OC)cc1)C(=O)C1=Cc2sc(CCCCCN)cc2N=C(N)C1` [TAZ-107] are 3.58 µM and 6.98 µM.
`CCCN(OCC)C(=O)C1=Cc2sc(CN3CCC(C(=O)OC)CC3)cc2N=C(N)C1` [TAZ-222]: the EC50 in assay [1] amounted to 4.89 µM; in assay [2], 2.83 µM.
The corresponding values for `CCCN(Cc1ccc(CN)nc1)C(=O)C1=Cc2sccc2N=C(N)C1` [TAZ-63] are 4.21 µM and 0.517 µM.
As for `CCCN(Cc1ccc(CNC(=O)OC(C)(C)C)cc1C(F)(F)F)C(=O)C1=Cc2sccc2N=C(N)C1` [TAZ-51], the EC50 in assay [1] was more than 9 µM; in assay [2], 5.63 µM.
Taken in the same sequence, the figures for `CCCN(Cc1ccc(CO)cc1)C(=O)C1=Cc2sccc2N=C(N)C1` [TAZ-96] were 2.96 µM and 0.326 µM.
The corresponding values for `CCCN(CCC)C(=O)C1=Cc2sc(CNC(=O)CCNC(=O)OC(C)(C)C)cc2N=C(N)C1` [TAZ-91] are 4.28 µM and 4.15 µM.
`CCCN(OCC)C(=O)C1=Cc2sc(CCC3(O)CN(C(=O)OC(C)(C)C)C3)cc2N=C(N)C1` [TAZ-199]: the results for the EC50 in assay [1] and in assay [2] were 0.031 µM and 1.61 µM, respectively.
Taken in the same sequence, the figures for `CCCN(OCC)C(=O)C1=Cc2sccc2N=C(N)C1` [TAZ-53] were 3.62 µM and 0.181 µM.
In the case of `CCCN(OCCNC(=O)OC1CCC1)C(=O)C1=Cc2sc(CC3CNC3)cc2N=C(N)C1` [TAZ-238, cyclobutyl N-[2-[[5-amino-2-(azetidin-3-ylmethyl)-6H-thieno[3,2-b]azepine-7-carbonyl]-propyl-amino]oxyethyl]carbamate], the EC50 came out at 0.112 µM in assay [1] and 0.286 µM in assay [2].
Regarding `CCCN(OCC)C(=O)C1=Cc2sc(CCCN3CCNCC3)cc2N=C(N)C1` [TAZ-244], the EC50 in assay [1] came out at 2.46 µM; in assay [2] it was 0.146 µM.
In the case of `CCCN(CCC)C(=O)C1=Cc2sc(CNC(=O)CNC(=O)OC(C)(C)C)cc2N=C(N)C1` [TAZ-93], the EC50 was determined as 4.49 µM in assay [1] and 3.13 µM in assay [2].
The corresponding values for `CCCN(CCC)C(=O)C1=Cc2sc(CO)cc2N=C(N)C1` [TAZ-99] are more than 9 µM and 3.62 µM.
Taken in the same sequence, the figures for `CCCN(CCC)C(=O)C1=Cc2sc(CNC(=O)CCN)cc2N=C(N)C1` [TAZ-90] were 0.909 µM and 3.19 µM.
With `CCCN(CCC(F)(F)F)C(=O)C1=Cc2sccc2N=C(N)C1` [TAZ-64], the EC50 in assay [1] was 5.06 µM; in assay [2], 2.74 µM.
The corresponding values for `CCCN(OCC)C(=O)C1=Cc2sc(CCC3CN(C(=O)OC(C)(C)C)C3)cc2N=C(N)C1` [TAZ-194] are 0.467 µM and 0.631 µM.
The corresponding values for `CCON(Cc1ccc(CN)cc1)C(=O)C1=Cc2sccc2N=C(N)C1` [TAZ-79] are more than 9 µM and 4.13 µM.
Taken in the same sequence, the figures for `CCCN(CCC)C(=O)C1=Cc2sc(CCCCN)cc2N=C(N)C1` [TAZ-38] were 4.15 µM and 3.75 µM.
`CCON(C(=O)C1=Cc2sc(CC3CN(C(=O)OC(C)(C)C)C3)cc2N=C(N)C1)C(C)CC` (centres unmarked) [TAZ-254]: the EC50 in assay [1] is 8.13 µM; in assay [2], 8.27 µM.
The corresponding values for `CCCN(Cc1ccc(CN)cc1C(F)(F)F)C(=O)C1=Cc2sccc2N=C(N)C1` [TAZ-52, 5-amino-N-[[4-(aminomethyl)-2-(trifluoromethyl)phenyl]methyl]-N-propyl-6H-thieno[3,2-b]azepine-7-carboxamide] are 2.71 µM and 0.151 µM.
Taken in the same sequence, the figures for `CCCN(C(=O)C1=Cc2sc(CCCCCN)cc2N=C(N)C1)C1CC1` [TAZ-122] were 3.35 µM and 3.24 µM.
Taken in the same sequence, the figures for `CCCN(CC12CC(CNC(=O)OC(C)(C)C)(C1)C2)C(=O)C1=Cc2sccc2N=C(N)C1` [TAZ-40] were more than 9 µM and more than 9 µM.
As to `CCCN(OC(C)C)C(=O)C1=Cc2sc(CC3CNC3)cc2N=C(N)C1` [TAZ-253, 5-amino-2-(azetidin-3-ylmethyl)-N-isopropoxy-N-propyl-6H-thieno[3,2-b]azepine-7-carboxamide], the values for the EC50 in assay [1] and in assay [2] were 7.17 µM and 0.192 µM, respectively.
The corresponding values for `CCCN(CCCNC(=O)OC1CCC1)C(=O)C1=Cc2sc(CN)cc2N=C(N)C1` [TAZ-171] are 5.29 µM and 3.13 µM.
The corresponding values for `CCCN(Cc1cnc(CN)cn1)C(=O)C1=Cc2sccc2N=C(N)C1` [TAZ-62] are 8.32 µM and 0.178 µM.
Taken in the same sequence, the figures for `CCCN(CCCNC(=O)OC1CCC1)C(=O)C1=Cc2sc(CCC3CCNCC3)cc2N=C(N)C1` [TAZ-166] were 0.802 µM and 3.7 µM.
Take `CCCN(Cc1ccc(CCNC(=O)OC(C)(C)C)cc1)C(=O)C1=Cc2sccc2N=C(N)C1` [TAZ-59]: the EC50 in assay [1] and in assay [2] was more than 9 µM in each case.
For `CCCN(Cc1ccc(CN)nc1C(F)(F)F)C(=O)C1=Cc2sccc2N=C(N)C1` [TAZ-70], the EC50 in assay [1] is 6.61 µM; in assay [2] it was 0.075 µM.
`CCCN(OCC)C(=O)C1=Cc2sc(CN3CC4(C3)CN(C(=O)OC(C)(C)C)C4)cc2N=C(N)C1` [TAZ-208]: the 50% effective concentration (EC50) in assay [1] came out at 3.61 µM; in assay [2] it was 8.51 µM.
The corresponding values for `CCCN(OCCNC(=O)CC(C)(C)C)C(=O)C1=Cc2sc(CCCCCNC(=O)OC(C)(C)C)cc2N=C(N)C1` [TAZ-150] are 1.99 µM and 1.67 µM.
